Assay results as given in US4578245A, “Multilayer analytical element” (Fuji Photo Film Co., Ltd., priority 1982, dated 1986).

assay: Relative Sensitivity in Aqueous Solution System (color formation with H2O2, peroxidase and 1,7-dihydroxynaphthalene); conditions: relative steepness of calibration curve; reference (C1) = 1.0; pH 6.0; 37° C., 10 min; 515 nm
Experimental: The following color-forming composition solutions were prepared using, as coupler, 1,7-dihydroxynaphthalene and, as chromogen, the compounds (1), (6), (7), (18), (C1) and (C2), respectively.
1,7-Dihydroxynaphthalene: 50 μmol
Phosphate buffer: added to adjust to pH 6.0
The color-forming solution having the above composition (5 ml.) was incubated at 37° C. for 3 min., and subsequently 50 μl. of aqueous H2 O2 solution (four levels from 1 mmol to 6 mmol and blank, respectively) was dropped into the incubated color-forming solution. The solution was further incubated at 37° C. for 10 min., and immediately subjected to transmissive spectroscopy at the wavelength of 515 nm for measurement of optical density of the formed color. The relationships between the H2 O2 concentrations and the measured optical density values on the formed color (the value was calculated by subtracting an optical density of the color formed in the blank solution from an optical density of the color formed in the aqueous H2 O2 incorporated solution) were plotted on an orthgonal axes graph to determine the steepness of slope of the calibration curve. The relative sensitivity of each compound is set forth in Table 6 in terms of a relative steepness value based on the reference steepness obtained in the measurement on the solution using the compound (C1). In Table 6, the reference steepness is given as 1.0.

Relative Sensitivity (aq. sol.)	SMILES
0.77	Cn1c(-c2ccccc2)c(N)c(=O)n1C [(C2), reference compound]
0.99	Cc1c(N)c(=O)n(-c2cccc(Cl)c2)n1C [(1)]
1.0	Cc1c(N)c(=O)n(-c2ccccc2)n1C [Compound (C1), 4-amino-2,3-dimethyl-1-phenyl-3-pyrazolin-5-one, reference compound]
0.82	Cn1c(-c2ccccc2)c(N)c(=O)n1-c1ccccc1 [(18)]
0.70	Cc1c(N)c(=O)n(-c2c(Cl)cc(Cl)cc2Cl)n1C [Compound (6)]
